Values joined by “and” are separate entries in the source; they are usually repeats but may differ in a detail not shown here. Equal values may be shown once.
Assays:
A549 cell = assay: Cytotoxicity test (SRB method) for A549 cells; format: cell-based, human; conditions: 48 hours incubation; for EC50: A549 human lung cancer cell, SRB, read-out: ED50(nM) for A549; for ED50(mg/mL) for A549: A549, SRB, Table 2
Source text: (§1) Human lung carcinomas A549 and […] were used for determining cytotoxicity of the compounds of the present invention according to the Sulfrhodamine-B (SRB) method which was developed by NCI in 1989 in order to determine in vitro anticancer activity of drugs.
(§2) Cells to be used in the experiment were separated from a surface using 0.5% Trypsin-EDTA solution and suspended in a density of 5×10^4 cell/ml therein. The cell suspension was introduced into a 96-well plate in an amount of 180/well and incubated for 24 hours in a 5% CO2 incubator of 37° C. Samples were dissolved in dimethylsulfoxide and then diluted by water distilled in advance for three times just before the experiment. Forty-one (41) samples were prepared into 4 types of final concentrations, i.e., 0.1, 0.03, 0.01 and 0.003 mg per ml of the medium. The diluted sample solutions were added to the 96-well plate in the amount of 20 μl/well and incubated for 48 hours in a CO2 incubator of 37° C. At the time of adding the samples, Tz (Time zero) plate was taken. The medium was removed from the Tz plate and each of the plates after incubation were completed. Ten (10)% […] (TCA) was added in the amount of […], and allowed to stand for 1 hour at 4° C. to fix the cells on the bottom surface of the plate. After the cells were fixed, the plate was washed five to six times with water to completely remove the remaining TCA solution and then dried at room temperature to completely remove the moisture. To the fully dried plate was introduced a dye solution in the amount of […] in which 0.4% SRB was dissolved in 1% acetic acid solution. […] After the dyeing process, the plate was dried again at room temperature. 100 ml of 10 mM Tris solution was added thereto in order to dissolve the dye, and then O.D. (optical density) was determined by microplate reader at 520 nm.
(§3) ED50 values for cancer cells were calculated as follows. The amount of SRB protein was analyzed at the time when incubation started by the addition of the sample. This amount was named time zero (Tz). The O.D. value obtained from a group which was not treated by the sample was named Control group (C) and the O.D. value obtained from a group which was treated by the sample was named Test group (T).
(§4) The degree of cytotoxicity of the compounds was calculated from Tz, C and T values according to the following equation.
(§5) That is, in the case of Tz≧T, the degree was calculated by
(§6) (T−Tz)/(C−Tz)×100(%), and
(§7) • in the case of Tz<T, the degree was calculated by […].
(§8) From the values thus obtained, ED50 value which is defined as the concentration at which growth of the cancer cell is inhibited by 50% was calculated using the regression function of Excel program.

[1] = tested on: Lewis Lung Cancer Cell (LLC); assay: Anti-cancer test for BDF1 mouse transplanted by Lewis Lung Cancer Cell, Experiment 2-1 (formulae 1a, 1b); format: in vivo; conditions: peritoneal injection 0.06 mmole/kg/day at days 1, 2, 4, 7, 8 (etoposide 36 mg/kg), cancer volume at 14 to 16 days
Source text: In order to evaluate the anti-cancer activity of the compounds of the present invention, LLC, which is a lung cancer cell of mouse, was transplanted into the hypodermic region of BDF1 mouse to induce a solid cancer. […] Experiment for the compounds of formulae (1a) and (1b) and that for the compound of formula (1c) were separately carried out.
Male BDF1 mouse (Weight 18 to 25 g), being in good health and purchased from Korea Biolink Co., was used as a test animal.
The mice were bred at a place controlled to the temperature of 23 to 24° C. while provided with water and feed ad libitum. As the feed, feed for mouse containing no antibiotics was used. The hypodermic tissue of C57BL/6 mouse, which includes cells cultured therein for 14 days, was taken up. Sterilized cold physiological saline was added to the tissue in the amount of 5 ml/g tissue to make a cell suspension. This cell suspension of 0.2 ml was transplanted into the hypodermic region of armpit of BDF1 mouse.
(§9) Each group includes 5 mice. After 24 hours from the transplantation, each test compound of formulae (1a) and (1b) was dissolved in 4% Tween 80 and injected peritoneally in the amount of 0.2 ml and in a concentration of 0.06 mmole/kg/day (that is, 0.06 mmole of each test compound was dissolved in 10 ml of 4% Tween 80, and then 0.2 ml of the resulting solution was peritoneally injected into a mouse). Only 4% Tween 80 was injected for the negative control group, and the same moles of etoposide (36 mg/kg) was injected for the positive control group. The injection was performed five times at 1, 2, 4, 7 and 8 days from the transplantation of cancer.
The anti-cancer effect was determined by measuring the volume of cancer of the control and test groups at 14 to 16 days from the administration of drugs and then calculated as follows. Volume of Cancer(mm^3)=Length(mm)×Width^2(mm^2)/2 Suppression Rate of Cancer Growth(%)=(C−T)×100(%)/C in which • C represents the average volume of cancer (mm^3) of the control group, and • T represents the average volume of cancer (mm^3) of the test group.

[2] = Weight change in the period of drug administration; format: in vivo, mouse; conditions: for Weight of mouse, Day 1: Day 1 from the cancer cell transplantation; for Weight of mouse, Day 2: Day 2 from the cancer cell transplantation; for Weight of mouse, Day 3: Day 3 from the cancer cell transplantation; for Weight of mouse, Day 4: Day 4 from the cancer cell transplantation; for Weight of mouse, Day 5: Day 5 from the cancer cell transplantation; for Weight of mouse, Day 6: Day 6 from the cancer cell transplantation; for Weight of mouse, Day 7: Day 7 from the cancer cell transplantation; for Weight of mouse, Day 8: Day 8 from the cancer cell transplantation
Experimental: as §9
As an index of toxicity, the weight change during the period of drug administration was recorded for the compounds of formulae (1a) and (1b) compared with the comparison compound of Etoposide.

SK-MEL-2 cell = assay: Cytotoxicity test (SRB method) for SK-MEL-2 cells; format: cell-based, human; conditions: SK-MEL-2, SRB, 48 hours incubation
Source text: as §1, §2, §3, §4, §5, §6, §7, §8

Compound | EC50 (A549 cell) [nM] | Suppression Rate for LLC [1] | Weight of mouse, Day 1 [2] [g] | Weight of mouse, Day 2 [2] [g] | Weight of mouse, Day 3 [2] [g] | Weight of mouse, Day 4 [2] [g] | Weight of mouse, Day 5 [2] [g] | Weight of mouse, Day 6 [2] [g] | Weight of mouse, Day 7 [2] [g] | Weight of mouse, Day 8 [2] [g] | ED50(mg/mL) for A549 (A549 cell) [mg/mL] | ED50(mg/mL) for SK-MEL-2 (SK-MEL-2 cell) [mg/mL]
COc1cc(C2c3cc4c(cc3CC3COC(=O)C32)OCO4)cc(OC)c1OC(=O)NC1CCCCC1 (stereo not drawn) [Compound 1b-4, 4′-demethyl-4′-O-cyclohexylcarbamoyl-1-deoxypodophyllotoxin] | 163 | 88% | 23 | 23.9 | 25 | 26 | 25 | 26 | 26 | 25.5 |  | 
COc1cc([C@@H]2c3cc4c(cc3[C@@H](O[C@@H]3O[C@@H]5CO[C@@H](C)O[C@H]5[C@H](O)[C@H]3O)[C@H]3COC(=O)[C@H]23)OCO4)cc(OC)c1O [Etoposide, reference compound] | 1990 | 90% and 90.8% | 23 | 24 | 25.1 | 26 | 25.9 | 26.3 | 25.6 | 26.6 | 1.102 | 
COc1cc(C2c3cc4c(cc3CC3COC(=O)C32)OCO4)cc(OC)c1OC(=O)CCCCCN (stereo not drawn) [Compound 1a-13, 4′-demethyl-4′-O-(6-aminohexanoyl)-1-deoxypodophyllotoxin] | 88.5 | 85% and 85.5% | 23 | 24.2 | 25 | 25.2 | 25 | 25.5 | 26 | 26.2 |  | 
COc1cc(C2c3cc4c(cc3CC3COC(=O)C32)OCO4)cc(OC)c1OC(=O)NC(C)C (stereo not drawn) [Compound 1b-2, 4′-demethyl-4′-O-isopropylcarbamoyl-1-deoxypodophyllotoxin] | 153 | 90% and 90.1% | 22.8 | 23.6 | 23.2 | 25 | 25 | 26.1 | 26 | 26 |  | 
COc1cc(C2c3cc4c(cc3CC3COC(=O)C32)OCO4)cc(OC)c1OC(=O)CCN (stereo not drawn) [Compound 1a-10, 4′-demethyl-4′-O-(3-aminopropanoyl)-1-deoxypodophyllotoxin] | 96.7 | 78% | 22.9 | 24.1 | 25 | 25.1 | 25.5 | 25.3 | 25 | 25.3 |  | 
COc1cc(C2c3cc4c(cc3CC3COC(=O)C32)OCO4)cc(OC)c1OC(=O)CCCCCCCN (stereo not drawn) [Compound 1a-15, 4′-demethyl-4′-O-(8-aminooctanoyl)-1-deoxypodophyllotoxin] | 74.2 | 34.5% |  |  |  |  |  |  |  |  |  | 
CCCCC/C=C\C/C=C\C/C=C\C/C=C\CCCC(=O)Oc1c(OC)cc(C2c3cc4c(cc3CC3COC(=O)C32)OCO4)cc1OC (stereo not drawn) [Compound 1c-28, 4′-demethyl-4′-O-(cis-5′,8′,11′,14′-eicosatetraenoyl)-1-deoxypodophyllotoxin] |  |  |  |  |  |  |  |  |  |  | 0.910 | 0.184
CCCCCCCCCCCCCCCC(=O)Oc1c(OC)cc(C2c3cc4c(cc3CC3COC(=O)C32)OCO4)cc1OC (stereo not drawn) [Compound 1c-13, 4′-demethyl-4′-O-hexadecanoyl-1-deoxypodophyllotoxin] |  |  |  |  |  |  |  |  |  |  | 0.268 | 0.290
